Assay in all cases: DTP human tumour cell line panel, 48 h
The test system of experiment [1] is A498 renal.
In experiment [2] the test system is HCT-15 colon.
Experiment [3] concerns K-562 leukemia.
For experiment [4], the system named is MALME-3M melanoma.
Experiment [5] has as its system MOLT-4 leukemia.
The test system of experiment [6] is NCI-H460 lung.
Experiment [7] relates to OVCAR-3 ovarian.
Experiment [8] has as its system SK-MEL-28 melanoma.
Experiment [9] relates to SK-OV-3 ovarian.
The test system of experiment [10] is IGROV1 ovarian.

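Grown in 96-well plates, cells were treated for 48 hours with each compound at five concentrations. Insufficient inhibition: endpoint recorded as highest concentration tested. GI50: concentration for 50% inhibition of growth. At the TGI there is no net growth.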

As for `O=C1/C(=C\c2cccc(Oc3ccccc3)c2)S(=O)(=O)C(c2ccccc2)N1Cc1ccccc1` (stereo not given), the TGI – broadly, the concentration at which net growth stops – in experiment [1] was > 100 µM; in experiment [2], 33.7 µM; in experiment [3], > 100 µM; in [4], 37.8 µM; in experiment [5], 7.7 µM; in experiment [6], 40.9 µM. Besides, the figures for the TGI in [7], in experiment [8] and in [9] were 34.2 µM, 93.2 µM and > 100 µM, respectively.
As for `COc1cc2c(cc1-c1c(C)noc1C)cc(C)c(=O)n2Cc1ccccn1`, the GI50 (in general, the concentration that inhibits growth by half) in [1] is 0.864 µM; in experiment [2], 0.694 µM; in experiment [10] it was 1.2 µM; in experiment [3], 0.963 µM; in [4], 1.14 µM; in experiment [5], 3.13 µM. Moreover, the GI50 is 6 µM in [6], 1.8 µM in [7], 3.33 µM in [8] and 0.554 µM in experiment [9]. Moreover, the TGI in experiment [1] is 5.12 µM; in experiment [2], > 100 µM; in experiment [10], > 100 µM; in [3], > 100 µM; in experiment [4] it was 7.45 µM; in experiment [5], > 100 µM. Moreover, the total growth inhibition concentration (TGI) in experiment [6] is > 100 µM; in [7] it was 11.2 µM; in [8] it was > 100 µM; in [9], 7.82 µM.
`C=CCn1c(=O)ccn(COCCO)c1=O`: the concentration for total growth inhibition (TGI) in experiment [1], in [10], in experiment [3], in experiment [4], in experiment [5] and in experiment [6] was > 100 µM in each case. Also, the TGI in experiment [7] and in experiment [8] was > 100 µM in each case.
In the case of `c1ccc2sc(SCSc3nc4ccccc4s3)nc2c1`, the TGI in experiment [1], in experiment [2], in experiment [10], in experiment [3], in [4] and in experiment [5] was > 100 µM each time. In addition, the total growth inhibition concentration (TGI) in experiment [6], in [7] and in experiment [8] was > 100 µM each time.
For `O=C1c2cc3c(cc2CC1Br)CCC3` (stereo not given), the TGI in [1] was determined as 32.2 µM; in [2], 4.82 µM; in experiment [10], 9.3 µM; in [3], 7.04 µM; in experiment [4], 2.82 µM; in experiment [5], 4.56 µM. For the same molecule, the total growth inhibition concentration (TGI) in [6] stood at 56.2 µM; in experiment [7], 3.86 µM; in experiment [8], 8.56 µM; in experiment [9] it was 15.9 µM.
With `Oc1ccccc1/C=N/c1nc2cc3sc(/N=C/c4ccccc4O)nc3cc2s1`, the TGI is > 100 µM in experiment [1]; > 100 µM in experiment [2]; > 100 µM in [10]; > 100 µM in experiment [3]; > 100 µM in experiment [4]; 81.2 µM in experiment [5]. For the same molecule, the TGI in experiment [6], in experiment [7], in [8] and in experiment [9] was > 100 µM each time.
For `CC12CC(=O)C3C(C(=O)C1)C32C` (stereo not given), the TGI in experiment [1], in experiment [2], in [10], in experiment [3], in experiment [4] and in experiment [5] was > 100 µM each time. Besides, the TGI in experiment [6], in experiment [7], in experiment [8] and in experiment [9] was > 100 µM in each case.
Consider `CS(=O)(=O)OCCn1c(=O)n(CCOS(C)(=O)=O)c(=O)n(CCOS(C)(=O)=O)c1=O`, for which the total growth inhibition concentration (TGI) in experiment [1], in [2], in [10], in experiment [3], in [4] and in experiment [5] was > 100 µM throughout. Further, the TGI in experiment [6], in experiment [7], in experiment [8] and in experiment [9] was > 100 µM each time.
As to `Cc1cc(=O)c2c([nH]1)NS(=O)(=O)NC2=O`, the concentration for total growth inhibition (TGI) in experiment [1], in experiment [2], in experiment [10], in [3], in [4] and in experiment [5] was > 100 µM in each case. For the same molecule, the TGI in experiment [7], in experiment [8] and in [9] was > 100 µM each time.
Turning to `CCOc1cc(C2CC(c3ccc(NS(=O)(=O)c4cc([N+](=O)[O-])ccc4C)cc3)=NN2C(=O)c2ccccc2)ccc1O` (stereo not given), the total growth inhibition concentration (TGI) was 44.3 µM in experiment [1]; > 100 µM in experiment [2]; > 100 µM in [10]; > 100 µM in experiment [3]; 61.4 µM in experiment [4]; > 100 µM in experiment [5]. For the same molecule, the concentration for total growth inhibition (TGI) is 36.3 µM in experiment [7], > 100 µM in [8] and 54.5 µM in experiment [9].
As to `COC(=O)c1c2c(cc3c1CC1(C3)Cc3cc4c(c(C(=O)OC)c3C1)CCCC4)CCCC2`, the concentration for total growth inhibition (TGI) in [1], in experiment [2], in [10], in [3], in [4] and in experiment [5] was > 100 µM in each case. The TGI in [7] and in experiment [9] was > 100 µM each time.
On to `CC(=O)N/N=C1\NC(=O)C[C@H]2[C@@H]3CC=C4C[C@@H](OC(C)=O)CC[C@]4(C)[C@H]3CC[C@]12C`, for which the concentration for total growth inhibition (TGI) in experiment [1] is 35.2 µM; in experiment [2], > 100 µM; in experiment [10] it was > 100 µM; in experiment [3], > 100 µM; in experiment [4], > 100 µM; in [5], > 100 µM. For the same molecule, the TGI in experiment [7] is > 100 µM; in experiment [8], 33 µM; in experiment [9], 53.7 µM.
Turning to `O=[N+]([O-])/C(C(Cl)=C(Cl)Cl)=C(\Nc1cccc2cccnc12)SCc1ccccc1`, the total growth inhibition concentration (TGI) in experiment [1] was found to be 50.6 µM; in experiment [2], 43.4 µM; in [3] it was 56.9 µM; in experiment [4], 28.9 µM; in [5] it was 14.4 µM; in [6], 55.3 µM. Besides, the total growth inhibition concentration (TGI) in [7] is 32.8 µM; in experiment [8], 33.9 µM; in experiment [9], 43.4 µM.

The record behind these values is PubChem BioAssay (NCI).
